What was measured:
Conditions in all cases: 48 h
NOMO1 [1] = experiment: AUC of viability dose-response curve (% viability x log10 dose units); higher = less sensitive
How it was run: (§1)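 Leukemia cells adapted to each medium (500 or 1000 cells/well, 1536-well plates) were exposed to library compounds in DMSO for 48 h at 37°C at 11 threefold doses, 47 μM to 0.79 nM. Luminescence by CellTiter-Glo One was normalised per plate to DMSO and cell-free wells, then fitted with a four-parameter log-logistic curve on log10 dose. Curves above full viability were scaled and quality-control failures removed before area under the curve was integrated by trapezoidal rule.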

P12-Ichikawa [2] = experiment: as above
How it was run: as §1

SEM cells [3] = experiment: as above
How it was run: as §1

NOMO1 [4] = experiment: cell viability relative to DMSO control; higher = less cytotoxic
How it was run: (§2)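 NOMO1, SEM and P12-Ichikawa leukemia cells spent at least four passages adapting to each medium before use. They were seeded at 500 cells/well (NOMO1, SEM) or 1000 cells/well (P12-Ichikawa) in 5 μl in 1536-well plates and pin-dosed with library compounds in DMSO at 11 threefold steps from 47 μM down to 0.79 nM. After 48 h at 37°C, CellTiter-Glo One luminescence was read. Viability is reported as a percentage of the DMSO wells on each plate, with cell-free wells as background.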

P12-Ichikawa [5] = experiment: as above
How it was run: as §2

SEM cells [6] = experiment: as above
How it was run: as §2

CC[C@@H](C(N)=O)N1CCCC1=O
AUC of viability dose-response curve
Conditions	NOMO1 [1]	P12-Ichikawa [2]	SEM cells [3]
HPLM + 10% dialyzed FBS	442	458	450
RPMI 5 mM glucose + 10% FBS	466	460	420
RPMI 5 mM glucose + 10% dialyzed FBS	456	467	443

OCCn1cc(-c2ccc3c(c2)CC/C3=N\O)c(-c2ccncc2)n1
AUC of viability dose-response curve
Conditions	NOMO1 [1]	P12-Ichikawa [2]	SEM cells [3]
HPLM + 10% dialyzed FBS	464	444	462
RPMI 5 mM glucose + 10% FBS	468	450	465
RPMI 5 mM glucose + 10% dialyzed FBS	472	440	472

Nc1nc(N)nc(-c2cc(Cl)ccc2Cl)n1.O=C(O)/C=C\C(=O)O
AUC of viability dose-response curve
Conditions	NOMO1 [1]	P12-Ichikawa [2]	SEM cells [3]
HPLM + 10% dialyzed FBS	472	447	447
RPMI 5 mM glucose + 10% FBS	453	460	432
RPMI 5 mM glucose + 10% dialyzed FBS	461	457	459

CN1C(=O)CCS(=O)(=O)C1c1ccc(Cl)cc1 (stereo not drawn)
AUC of viability dose-response curve
Conditions	HPLM + 10% dialyzed FBS	RPMI 5 mM glucose + 10% FBS	RPMI 5 mM glucose + 10% dialyzed FBS
NOMO1 [1]	447	472	459
P12-Ichikawa [2]	452	448	442

CCOC(=O)C(C)(C)Oc1ccc(Cl)cc1
AUC of viability dose-response curve
Conditions	NOMO1 [1]	P12-Ichikawa [2]	SEM cells [3]
HPLM + 10% dialyzed FBS	464	459	465
RPMI 5 mM glucose + 10% FBS	453	464	471
RPMI 5 mM glucose + 10% dialyzed FBS	453	461	476

Cc1nnc(N[S+](=O)([O-])c2ccc(N)cc2)s1
AUC of viability dose-response curve
Conditions	HPLM + 10% dialyzed FBS	RPMI 5 mM glucose + 10% FBS	RPMI 5 mM glucose + 10% dialyzed FBS
P12-Ichikawa [2]	390	394	412
SEM cells [3]	450	443	449

O=C(NCCCNc1nc(Nc2cccc(NC(=O)N3CCCC3)c2)ncc1I)c1cccs1
cell viability [%]
Conditions	NOMO1 [4]	P12-Ichikawa [5]	SEM cells [6]
HPLM + 10% dialyzed FBS, 0.000781 µM	81.8	91.6	55.6
HPLM + 10% dialyzed FBS, 0.00234 µM	91	91.9	91.1
HPLM + 10% dialyzed FBS, 0.00702 µM	88.4	93	102
HPLM + 10% dialyzed FBS, 0.0211 µM	79.3	90.9	75.8
HPLM + 10% dialyzed FBS, 0.0632 µM	80.9	87.3	46.5
HPLM + 10% dialyzed FBS, 0.19 µM	72	84	60.8
HPLM + 10% dialyzed FBS, 0.569 µM	91.5	81.3	50.4
HPLM + 10% dialyzed FBS, 1.71 µM	51.5	72.5	27.2
HPLM + 10% dialyzed FBS, 5.12 µM	67.9	84.9	32.9
HPLM + 10% dialyzed FBS, 15.4 µM	84.3	76.1	76.7
HPLM + 10% dialyzed FBS, 46.1 µM	78.7	85.1	70.6
RPMI 5 mM glucose + 10% FBS, 0.000781 µM	80.4	83.2	74
RPMI 5 mM glucose + 10% FBS, 0.00234 µM	89.7	91	124
RPMI 5 mM glucose + 10% FBS, 0.00702 µM	78	87.6	124
RPMI 5 mM glucose + 10% FBS, 0.0211 µM	81.5	90	111
RPMI 5 mM glucose + 10% FBS, 0.0632 µM	76.1	85.9	68.7
RPMI 5 mM glucose + 10% FBS, 0.19 µM	76.9	90.4	85.1
RPMI 5 mM glucose + 10% FBS, 0.569 µM	80	94.2	33.1
RPMI 5 mM glucose + 10% FBS, 1.71 µM	65.9	50	13.4
RPMI 5 mM glucose + 10% FBS, 5.12 µM	77	84.5	37.5
RPMI 5 mM glucose + 10% FBS, 15.4 µM	83.1	83.7	77.7
RPMI 5 mM glucose + 10% FBS, 46.1 µM	89.9	79.9	68.9
RPMI 5 mM glucose + 10% dialyzed FBS, 0.000781 µM	89.1	88.1	46.5
RPMI 5 mM glucose + 10% dialyzed FBS, 0.00234 µM	89.2	84.6	96.9
RPMI 5 mM glucose + 10% dialyzed FBS, 0.00702 µM	89.3	79.8	87.4
RPMI 5 mM glucose + 10% dialyzed FBS, 0.0211 µM	75	82.6	78.9
RPMI 5 mM glucose + 10% dialyzed FBS, 0.0632 µM	84.6	91.7	36.8
RPMI 5 mM glucose + 10% dialyzed FBS, 0.19 µM	84.4	88.1	64.9
RPMI 5 mM glucose + 10% dialyzed FBS, 0.569 µM	80	84.9	42.6
RPMI 5 mM glucose + 10% dialyzed FBS, 1.71 µM	59.1	81.4	23.9
RPMI 5 mM glucose + 10% dialyzed FBS, 5.12 µM	83.1	80.2	28.4
RPMI 5 mM glucose + 10% dialyzed FBS, 15.4 µM	75.7	85.6	79.6
RPMI 5 mM glucose + 10% dialyzed FBS, 46.1 µM	76.9	72.4	62.6

AUC of viability dose-response curve
Conditions	HPLM + 10% dialyzed FBS	RPMI 5 mM glucose + 10% FBS	RPMI 5 mM glucose + 10% dialyzed FBS
NOMO1 [1]	375	381	384
P12-Ichikawa [2]	407	400	401

Reference: the supplement of paper PMC11451515
